Numbers after ± are expanded uncertainties.
Settings: Liquid; for speed of sound / mass density: 101.33 kPa; for speed of sound: Sing-around technique in a fixed-path interferometer; for mass density: Vibrating tube method; for vapor or sublimation pressure: Closed cell (Static) method

speed of sound (293.15 K) | mass density (293.15 K) | speed of sound (303.15 K) | mass density (303.15 K) | speed of sound (313.15 K) | mass density (313.15 K) | speed of sound (323.15 K) | mass density (323.15 K) | vapor or sublimation pressure (303.15 K) | vapor or sublimation pressure (323.15 K) | Compound
1598.5 ± 1.6 m/s | 1185.65 ± 0.38 kg/m3 | 1573.8 ± 1.6 m/s | 1178.86 ± 0.38 kg/m3 | 1550.1 ± 1.6 m/s | 1172.11 ± 0.37 kg/m3 | 1527 ± 1.6 m/s | 1165.37 ± 0.37 kg/m3 |  |  | CCCC[n+]1cccc(C)c1.F[B-](F)(F)F [1-butyl-3-methylpyridinium tetrafluoroborate]
1611.8 ± 1.6 m/s | 1185.92 ± 0.38 kg/m3 | 1586.7 ± 1.6 m/s | 1179.12 ± 0.38 kg/m3 | 1562.8 ± 1.6 m/s | 1172.12 ± 0.37 kg/m3 | 1539.3 ± 1.6 m/s | 1165.52 ± 0.37 kg/m3 |  |  | CCCC[n+]1ccc(C)cc1.F[B-](F)(F)F [1-butyl-4-methylpyridinium tetrafluoroborate]
1160.1 ± 1.2 m/s | 789.481 ± 0.15 kg/m3 | 1127.2 ± 1.2 m/s | 781.302 ± 0.15 kg/m3 | 1093.6 ± 1.2 m/s | 772.569 ± 0.15 kg/m3 | 1060.4 ± 1.2 m/s | 763.647 ± 0.16 kg/m3 | 10.47 ± 0.045 kPa | 29.57 ± 0.067 kPa | CCO [ethanol]
1118.8 ± 1.2 m/s | 791.243 ± 0.12 kg/m3 | 1086 ± 1.1 m/s | 781.813 ± 0.13 kg/m3 | 1053.5 ± 1.1 m/s | 772.287 ± 0.13 kg/m3 | 1021.5 ± 1.1 m/s | 762.628 ± 0.14 kg/m3 | 21.93 ± 0.08 kPa | 55.78 ± 0.12 kPa | CO [methanol]
